Test results: ChEMBL document CHEMBL5154817, “Structure-activity relationship studies on O-alkylamino-tethered salicylamide derivatives with various amino acid linkers as potent anticancer agents” (Eur J Med Chem, 2022)
pIC50: −log10 of the molar value. Calls of active or inactive are those of the source. No cut-off for these calls is given here.

Assays:
MDA-MB-231 [1] = assay: Induction of apoptosis in human MDA-MB-231 cells assessed as late apoptotic cells at 5 uM incubated for 48 hrs by Annexin V staining based cell analyzer method (reference value: 4.45%); assay type: functional
MDA-MB-231 [2] = assay: Induction of apoptosis in human MDA-MB-231 cells assessed as early apoptotic cells at 5 uM incubated for 48 hrs by Annexin V staining based cell analyzer method (reference value: 2.6%); assay type: functional
MDA-MB-231 [3] = assay: Induction of apoptosis in human MDA-MB-231 cells assessed as increase in cleaved caspase-3 level at 1 to 10 uM incubated for 48 hrs by Western blotting analysis; assay type: functional, cell-based; details: dose 1-10 µM
MCF7 [4] = assay: Antiproliferative activity against human MCF7 cells assessed as inhibition of cell growth incubated for 72 hrs by MTT assay; assay type: functional, cell-based; details: MCF7, 72 h
T47D [5] = assay: Inhibition of colony formation in human T47D cells incubated for 2 weeks measured by crystal violet staining method; assay type: functional, cell-based; details: dose 0.5-7.5 µM, DDE = dose-dependent effect
MDA-MB-231 [6] = assay: Induction of apoptosis in human MDA-MB-231 cells assessed as increase in cleaved PARP level at 1 to 10 uM incubated for 48 hrs by Western blotting analysis; assay type: functional, cell-based; details: dose 1-10 µM
MDA-MB-231 [7] = assay: Induction of apoptosis in human MDA-MB-231 cells assessed as late apoptotic cells at 10 uM incubated for 48 hrs by Annexin V staining based cell analyzer method (reference value: 4.45%); assay type: functional
MDA-MB-231 [8] = assay: Induction of apoptosis in human MDA-MB-231 cells assessed as necrotic cells at 1 uM incubated for 48 hrs by Annexin V staining based cell analyzer method (reference value: 0.4%); assay type: functional
T47D [9] = assay: Antiproliferative activity against human T47D cells assessed as inhibition of cell growth incubated fro 72 hrs by MTT assay; assay type: functional, cell-based
[10] = Cytotoxicity against human MCF-10A cells incubated for 72 hrs by MTT assay; assay type: toxicity, cell-based
MDA-MB-231 [11] = assay: Induction of apoptosis in human MDA-MB-231 cells assessed as viable cells at 1 uM incubated for 48 hrs by Annexin V staining based cell analyzer method (reference value: 92.55%); assay type: functional; details: read-out: Activity
MDA-MB-468 [12] = assay: Antiproliferative activity against human MDA-MB-468 cells assessed as inhibition of cell growth incubated for 72 hrs by MTT assay; assay type: functional, cell-based; details: MDA-MB-468, 72 h
MDA-MB-231 [13] = assay: Induction of apoptosis in human MDA-MB-231 cells assessed as necrotic cells at 5 uM incubated for 48 hrs by Annexin V staining based cell analyzer method (reference value: […]); assay type: functional
[14] = target: Signal transducer and activator of transcription 3 (Homo sapiens) (UniProt P40763); assay: Inhibition of STAT3 in human MDA-MB-231 cells assessed as suppression of STAT3 phosphorylation incubated for 24 hrs by Western blotting analysis; assay type: cell-based; details: dose 1-10 µM, DDE = dose-dependent effect
Chain of Signal transducer and activator of transcription 3 (Homo sapiens) (P40763 whole entry): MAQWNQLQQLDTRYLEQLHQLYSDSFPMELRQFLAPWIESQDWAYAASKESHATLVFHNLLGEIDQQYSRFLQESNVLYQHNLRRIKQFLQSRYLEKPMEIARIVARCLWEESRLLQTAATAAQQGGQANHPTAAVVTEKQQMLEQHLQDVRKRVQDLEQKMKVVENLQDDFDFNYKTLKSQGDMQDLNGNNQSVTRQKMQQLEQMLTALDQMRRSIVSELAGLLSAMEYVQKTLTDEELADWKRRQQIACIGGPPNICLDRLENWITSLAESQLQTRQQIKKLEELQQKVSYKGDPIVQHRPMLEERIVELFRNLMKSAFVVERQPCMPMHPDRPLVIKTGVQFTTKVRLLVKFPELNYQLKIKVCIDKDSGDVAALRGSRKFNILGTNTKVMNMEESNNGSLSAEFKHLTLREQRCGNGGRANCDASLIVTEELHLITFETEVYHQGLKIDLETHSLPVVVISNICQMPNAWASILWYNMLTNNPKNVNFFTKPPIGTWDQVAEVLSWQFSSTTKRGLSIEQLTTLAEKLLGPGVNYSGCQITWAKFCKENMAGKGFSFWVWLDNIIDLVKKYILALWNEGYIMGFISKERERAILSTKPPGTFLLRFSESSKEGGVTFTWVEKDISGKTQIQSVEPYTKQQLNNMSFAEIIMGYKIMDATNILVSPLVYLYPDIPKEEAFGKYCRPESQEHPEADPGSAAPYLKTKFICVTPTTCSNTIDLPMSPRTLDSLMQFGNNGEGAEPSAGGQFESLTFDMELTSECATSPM

MDA-MB-231 [15] = assay: Induction of apoptosis in human MDA-MB-231 cells assessed as downregulation of Bcl-2 level at 1 to 10 uM incubated for 48 hrs by Western blotting analysis; assay type: functional, cell-based; details: dose 1-10 µM
MDA-MB-231 [16] = assay: Induction of apoptosis in human MDA-MB-231 cells assessed as early apoptotic cells at 10 uM incubated for 48 hrs by Annexin V staining based cell analyzer method (reference value: 2.6%); assay type: functional
MDA-MB-231 [17] = assay: Induction of apoptosis in human MDA-MB-231 cells assessed as viable cells at 10 uM incubated for 48 hrs by Annexin V staining based cell analyzer method (reference value: 92.55%); assay type: functional; details: read-out: Activity
MDA-MB-231 [18] = assay: Inhibition of colony formation in human MDA-MB-231 cells incubated for 2 weeks measured by crystal violet staining method; assay type: functional, cell-based; details: dose 0.1-3 µM, DDE = dose-dependent effect
MDA-MB-231 [19] = assay: Induction of apoptosis in human MDA-MB-231 cells assessed as late apoptotic cells at 1 uM incubated for 48 hrs by Annexin V staining based cell analyzer method (reference value: 4.45%); assay type: functional
[20] = Toxicity in nude mouse xenografted with human MDA-MB-231 cells assessed as loss of body weight at 7.5 to 10 mg/kg, ip measured daily for 14 days; assay type: organism-based; details: in vivo, 336 h, dose 7.5-10 mg/kg, time 14 day
MDA-MB-231 [21] = assay: Induction of apoptosis in human MDA-MB-231 cells assessed as necrotic cells at 10 uM incubated for 48 hrs by Annexin V staining based cell analyzer method (reference value: 0.4%); assay type: functional
MCF7 [22] = assay: Inhibition of colony formation in human MCF7 cells incubated for 2 weeks measured by crystal violet staining method; assay type: functional, cell-based; details: dose 1-10 µM, DDE = dose-dependent effect
MDA-MB-231 [23] = assay: Induction of apoptosis in human MDA-MB-231 cells assessed as early apoptotic cells at 1 uM incubated for 48 hrs by Annexin V staining based cell analyzer method (reference value: 2.6%); assay type: functional
MDA-MB-468 [24] = assay: Inhibition of colony formation in human MDA-MB-468 cells incubated for 2 weeks measured by crystal violet staining method; assay type: functional, cell-based; details: dose 0.5-7.5 µM, DDE = dose-dependent effect
MDA-MB-231 [25] = assay: Induction of apoptosis in human MDA-MB-231 cells assessed as activation of Bax at 1 to 10 uM incubated for 48 hrs by Western blotting analysis; assay type: functional, cell-based; details: dose 1-10 µM
MDA-MB-231 [26] = assay: Antiproliferative activity against human MDA-MB-231 cells assessed as inhibition of cell growth incubated for 72 hrs by MTT assay; assay type: functional, cell-based; details: MDA-MB-231, 72 h
MDA-MB-231 [27] = assay: Induction of apoptosis in human MDA-MB-231 cells assessed as viable cells at 5 uM incubated for 48 hrs by Annexin V staining based cell analyzer method (reference value: 92.55%); assay type: functional; details: read-out: Activity
MDA-MB-231 [28] = assay: Antitumor activity against human MDA-MB-231 cells xenografted in nude mouse assessed as reduction in tumor volume at 10 mg/kg, ip measured every other day for 14 days; assay type: functional; details: MDA-MB-231, 336 h, time 14 day

pIC50 (MCF7 [4]): 5.04
pIC50 (T47D [9]): 5.05
pIC50 (MDA-MB-468 [12]): 4.74
inhibition [14]: Dde
pIC50 (MDA-MB-231 [26]): 5.47
Structure (SMILES): CC(C)[C@H](NC(=O)c1cc(Cl)ccc1OCCNC(=O)OC(C)(C)C)C(=O)Nc1ccc([N+](=O)[O-])cc1Cl
Activity (MDA-MB-231 [1]): 10.9%
Activity (MDA-MB-231 [2]): 9.75%
Activity (MDA-MB-231 [3]): Active
inhibition (T47D [5]): Dde
Activity (MDA-MB-231 [6]): Active
Activity (MDA-MB-231 [7]): 35.7%
Activity (MDA-MB-231 [8]): 0.3%
IC50 at 72 h [10]: > 60 µM
viability at 1 µM (MDA-MB-231 [11]): 94.2%
Activity (MDA-MB-231 [13]): 0.55%
Activity (MDA-MB-231 [15]): Active
Activity (MDA-MB-231 [16]): 17.85%
viability at 10 µM (MDA-MB-231 [17]): 44.9%
inhibition (MDA-MB-231 [18]): Dde
Activity (MDA-MB-231 [19]): 2.6%
Activity [20]: Non-Toxic
Activity (MDA-MB-231 [21]): 1.6%
inhibition (MCF7 [22]): Dde
Activity (MDA-MB-231 [23]): 2.85%
inhibition (MDA-MB-468 [24]): Dde
Activity (MDA-MB-231 [25]): Active
viability at 5 µM (MDA-MB-231 [27]): 78.8%
inhibition in vivo at 10 mg/kg (MDA-MB-231 [28]): 55%
